Where two headings read alike, the source gives them in different places.
Assays:
Assay type in all cases: cell-based
Citrobacter freundii E8 = assay: minimum inhibitory concentration, Citrobacter freundii E8 (DST agar+10% horse blood)
Experimental: (§1) The minimum inhibitory concentrations (MIC) of the compound (e54) was determined using a standard DST agar+10% horse blood substrate. The tests used an undiluted inoculum of bacteria. […]
(§2) The minimum inhibitory concentrations (MIC) of this compound was determined using a standard DST agar+10% horse blood substrate.
(§3) The minimum inhibitory concentrations (MIC) of this compound was determined using a standard DST agar+10% horse blood substrate. The tests used an undiluted inoculum of bacteria.

Enterobacter cloacae N1 = assay: minimum inhibitory concentration, Enterobacter cloacae N1 (DST agar+10% horse blood); conditions: Enterobacter cloacae, Enterobactor cloacae N1
Experimental: as §1, §2, §3

Escherichia coli 0111 = assay: minimum inhibitory concentration, Escherichia coli 0111 (DST agar+10% horse blood)
Experimental: as §1, §2, §3

Escherichia coli JT 39 = assay: minimum inhibitory concentration, Escherichia coli JT 39 (DST agar+10% horse blood); conditions: JT39
Experimental: as §1, §2, §3

Klebsiella aerogenes A = assay: minimum inhibitory concentration, Klebsiella aerogenes A (DST agar+10% horse blood)
Experimental: as §1, §2, §3

Proteus mirabilis C977 = assay: minimum inhibitory concentration, Proteus mirabilis C977 (DST agar+10% horse blood)
Experimental: as §1, §2, §3

Proteus morganii I580 = assay: minimum inhibitory concentration, Proteus morganii I580 (DST agar+10% horse blood); conditions: Morganella morganii
Experimental: The minimum inhibitory concentrations (MIC) of the compound (e54) was determined using a standard DST agar+10% horse blood substrate. The tests used an undiluted inoculum of bacteria.
Sodium (5R,6S)-3-(2-acetamidoethylthio)--6-ethyl-7-oxo-1-azabicyclo[3.2.0]-hept-2-ene-2-carboxylate [drawing 60] p-Methoxycarbonylbenzyl (5R,6S)-3-(2-acetamidoethylthio)-6-ethyl-7-oxo-1-azabicyclo[3.2.0]hept-2-ene-2-carboxylate (e58) (18 mg) was added to the cathodic compartment of an H-type divided two-compartment electrochemical cell, with a mercury cathode and a platinum anode. The cell contained degassed 0.1 M n-Bu4 NI in dimethylformamide as electrolyte. The volume of the catholyte was about 15 ml [glacial acetic acid (about 10 mg) added] and the volume of the anolyte was about 8 ml. A potentiostat was employed to fix the potential of the cathode at -1.9 V with respect to the standard calomel electrode, and the initial current, about 56 mA, fell to about 15 mA after about 15 min. The catholyte was removed from the cell and the solvent was evaporated in vacuo. The residue was taken up in CH2 Cl2 (10 ml) and washed with water (10 ml). The aqueous phase was separated and washed with CH2 Cl2. The aqueous phase, containing the tetrabutylammonium salt corresponding to (e63) was passed through an Amberlite IR 120 (Na form) column (17×1 cm) and the eluate was reduced to low volume by evaporation in vacuo. The residue was passed through a Biogel P-2 column, to yield fractions containing sodium (5R,6S)-3-(2-acetamidoethylthio)-6-ethyl-7-oxo-1-azabicyclo[3.2.0]hept-2-ene-2-carboxylate (e63) having λmax 298 nm. The minimum inhibitory concentrations (MIC) of this compound was determined using a standard DST agar+10% horse blood substrate.
Sodium (5R,6S)-3-[(E)-2-acetamidoethenylthio]-6-ethyl-7-oxo-1-azabicyclo[3.2.0]hept-2-ene-2-carboxylate [drawing 68] p-Methoxycarbonylbenzyl (5R,6S)-3-[(E)-2-acetamidoethenylthio]-6-ethyl-7-oxo-1-azabicyclo[3.2.0]hept-2-ene-2-carboxylate (e72) (64 mg) in solution in 0.1 M (n-C4 H9)4 NBF4 in dry DMF was added to the cathodic compartment of a divided cylindrical electrochemical cell, with a mercury cathode and platinum anode. The volume of electrolyte in the cathodic compartment was about 25 ml, and in the anodic compartment about 10 ml. Acetic acid (12 mg) was added to the cathodic compartment and ethanol (250 mg) was added to the anodic compartment. The cell was degassed by passing argon for 30 min. The potentiostat was engaged to maintain the potential of the cathode at -1.9 V w.r.t. standard calomel electrode. The initial current (40 mA) fell to about 5 mA after 25 min. The solvent was removed from the catholyte by evaporation in vacuo and the residual oil was taken up in CH2 Cl2 (20 ml) and extracted with water (15 ml) containing sodium tetrafluoroborate (100 mg). The aqueous extract was washed with CH2 Cl2 and then passed down an Amberlite 1R 120 column (1×20 cm) in the sodium form. The volume of the eluate was reduced to about 5 ml by evaporation in vacuo and loaded onto a Biogel P-2 column (18×3 cm). Elution with water yielded fractions containing sodium (5R,6S)-3-[(E)-2-acetamidoethenylthio]-6-ethyl-7-oxo-1-azabicyclo[3.2.0]hept-2-ene-2-carboxylate (e73) λmax 308 nm. The minimum inhibitory concentrations (MIC) of this compound was determined using a standard DST agar+10% horse blood substrate.
Sodium (5R,6R)-3-[(E)-2-acetamidoethenylthio]-6-(1-benzylthioethyl)-7-oxo-1-azabicyclo[3.2.0]hept-2-ene-2-carboxylate [drawing 87] The least polar crystalline isomer of the ester (e93) (40 mg) obtained in Example 70 was added to a mixture of 5% Pd on C (60 mg) in 20% aqueous dioxan (5 ml) which had been prehydrogenated for 0.5 h. Hydrogenation was continued for 4 h and the mixture was filtered through Celite after adding NaHCO3 (7 mg) and water (10 ml). The solution was concentrated to a volume of about 10 ml and was then washed with ethyl acetate (3×30 ml). […]

Proteus rettgeri WM16 = assay: minimum inhibitory concentration, Proteus rettgeri WM16 (DST agar+10% horse blood); conditions: Providencia rettgeri
Experimental: as §1, §2, §3

Proteus vulgaris WO91 = assay: minimum inhibitory concentration, Proteus vulgaris WO91 (DST agar+10% horse blood)
Experimental: as §1, §2, §3

Pseudomonas aeruginosa A = assay: minimum inhibitory concentration, Pseudomonas aeruginosa A (DST agar+10% horse blood)
Experimental: as §1, §2, §3

[1] = test system: Salmonella typhimurium CT10; assay: minimum inhibitory concentration, Salmonella typhimurium CT10 (DST agar+10% horse blood); conditions: Salmonella enterica
Experimental: as §1, §2, §3

Serratia marcescens US20 = assay: minimum inhibitory concentration, Serratia marcescens US20 (DST agar+10% horse blood)
Experimental: as §1, §2, §3

Shigella sonnei MB 11967 = assay: minimum inhibitory concentration, Shigella sonnei MB 11967 (DST agar+10% horse blood); conditions: MB11967
Experimental: as §1, §2, §3

Bacillus subtilis A = assay: minimum inhibitory concentration, Bacillus subtilis A (DST agar+10% horse blood)
Experimental: as §1, §2, §3

[2] = test system: Staphylococcus aureus Oxford; assay: minimum inhibitory concentration, Staphylococcus aureus Oxford (DST agar+10% horse blood)
Experimental: as §1, §2, §3

[3] = test system: Staphylococcus aureus Russell; assay: minimum inhibitory concentration, Staphylococcus aureus Russell (DST agar+10% horse blood)
Experimental: as §1, §2, §3

[4] = test system: Staphylococcus aureus 1517; assay: minimum inhibitory concentration, Staphylococcus aureus 1517 (DST agar+10% horse blood)
Experimental: as §1, §2, §3

Streptococcus faecalis I = assay: minimum inhibitory concentration, Streptococcus faecalis I (DST agar+10% horse blood); conditions: Enterococcus faecalis
Experimental: as §1, §2, §3

[5] = test system: Streptococcus pneumoniae CN33; assay: minimum inhibitory concentration, Streptococcus pneumoniae CN33 (DST agar+10% horse blood)
Experimental: as §1, §2, §3

E. coli ESS = assay: minimum inhibitory concentration, E. coli ESS (DST agar+10% horse blood); conditions: Escherichia coli
Experimental: as §1, §2, §3

[6] = test system: Streptococcus pyogenes CN10; assay: minimum inhibitory concentration, Streptococcus pyogenes CN10 (DST agar+10% horse blood)
Experimental: as §1, §2, §3

[7] = Proteus morganii I580, DST agar+10% horse blood, read-out: MIC

CC[C@@H]1C(=O)N2C(C(=O)[O-])=C(S/C=C/NC(C)=O)C[C@H]12.[Na+] [e73, sodium (5R,6S)-3-[(E)-2-acetamidoethenylthio]-6-ethyl-7-oxo-1-azabicyclo[3.2.0]hept-2-ene-2-carboxylate]
MIC (Citrobacter freundii E8): 2.5 µg/mL
MIC (Enterobacter cloacae N1): 2.5 µg/mL
MIC (Escherichia coli 0111): 2.5 µg/mL
MIC (Escherichia coli JT 39): 10 µg/mL
MIC (Klebsiella aerogenes A): 2.5 µg/mL
MIC (Proteus mirabilis C977): 10 µg/mL
MIC (Proteus morganii I580; [7]): 5 µg/mL
MIC (Proteus rettgeri WM16): 10 µg/mL
MIC (Proteus vulgaris WO91): 10 µg/mL
MIC (Pseudomonas aeruginosa A): > 40 µg/mL
MIC [1]: 1.2 µg/mL
MIC (Serratia marcescens US20): 5 µg/mL
MIC (Shigella sonnei MB 11967): 2.5 µg/mL
MIC (Bacillus subtilis A): 1.2 µg/mL
MIC [2]: 0.6 µg/mL
MIC [3]: 2.5 µg/mL
MIC [4]: > 40 µg/mL
MIC (Streptococcus faecalis I): 40 µg/mL
MIC [5]: ≤ 0.1 µg/mL
MIC (E. coli ESS): 0.3 µg/mL

CC(=O)N/C=C/SC1=C(C(=O)[O-])N2C(=O)[C@H](C(C)SCc3ccccc3)[C@H]2C1.[Na+] (stereo partly drawn) [e94, Sodium (5R,6R)-3-[(E)-2-acetamidoethenylthio]-6-(1-benzylthioethyl)-7-oxo-1-azabicyclo[3.2.0]hept-2-ene-2-carboxylate]
MIC (Citrobacter freundii E8): 6.2 µg/mL
MIC (Enterobacter cloacae N1): 3.1 µg/mL
MIC (Escherichia coli 0111): 3.1 µg/mL
MIC (Escherichia coli JT 39): 3.1 µg/mL
MIC (Klebsiella aerogenes A): 3.1 µg/mL
MIC (Proteus mirabilis C977): 12.5 µg/mL
MIC (Proteus morganii I580; [7]): 6.2 µg/mL
MIC (Proteus rettgeri WM16): 6.2 µg/mL
MIC (Proteus vulgaris WO91): 6.2 µg/mL
MIC (Pseudomonas aeruginosa A): 50 µg/mL
MIC [1]: 1.6 µg/mL
MIC (Serratia marcescens US20): 6.2 µg/mL
MIC (Shigella sonnei MB 11967): 1.6 µg/mL
MIC (Bacillus subtilis A): 1.6 µg/mL
MIC [2]: 0.4 µg/mL
MIC [3]: 0.8 µg/mL
MIC [4]: 50 µg/mL
MIC (Streptococcus faecalis I): 25 µg/mL
MIC [5]: 0.2 µg/mL
MIC [6]: 0.4 µg/mL
MIC (E. coli ESS): 0.4 µg/mL

C=CCSC(C)[C@H]1C(=O)N2C(C(=O)[O-])=C(S/C=C/NC(C)=O)C[C@H]12.[Na+] (stereo partly drawn) [e96, Sodium (5R,6R)-3-[(E)-2-acetamidoethenylthio]-6-(1-allylthioethyl)-7-oxo-1-azabicyclo[3.2.0]hept-2-ene-2-carboxylate]
MIC (Citrobacter freundii E8): 50 µg/mL
MIC (Enterobacter cloacae N1): 25 µg/mL
MIC (Escherichia coli 0111): 50 µg/mL
MIC (Escherichia coli JT 39): 25 µg/mL
MIC (Klebsiella aerogenes A): 6.2 µg/mL
MIC (Proteus mirabilis C977): 100 µg/mL
MIC (Proteus morganii I580; I580): 50 µg/mL
MIC (Proteus rettgeri WM16): 50 µg/mL
MIC (Proteus vulgaris WO91): 25 µg/mL
MIC (Pseudomonas aeruginosa A): > 100 µg/mL
MIC [1]: 25 µg/mL
MIC (Serratia marcescens US20): 50 µg/mL
MIC (Shigella sonnei MB 11967): 25 µg/mL
MIC (Bacillus subtilis A): 1.6 µg/mL
MIC [2]: 0.8 µg/mL
MIC [3]: 1.6 µg/mL
MIC [4]: 12.5 µg/mL
MIC (Streptococcus faecalis I): 50 µg/mL
MIC [5]: ≤ 0.2 µg/mL
MIC [6]: 0.4 µg/mL
MIC (E. coli ESS): 1.6 µg/mL

CC(=O)N/C=C/SC1=C(C(=O)[O-])N2C(=O)[C@H](C(C)SCCNC(C)=O)[C@H]2C1.[Na+] (stereo partly drawn) [e98, Sodium (5R,6R)-3-[(E)-2-acetamidoethenylthio]-6-[1-(2-acetamidoethylthio)ethyl]-7-oxo-1-azabicyclo[3.2.0]hept-2-ene-2-carboxylate]
MIC (Citrobacter freundii E8): 5 µg/mL
MIC (Enterobacter cloacae N1): 5 µg/mL
MIC (Escherichia coli 0111): 5 µg/mL
MIC (Escherichia coli JT 39): 5 µg/mL
MIC (Klebsiella aerogenes A): 5 µg/mL
MIC (Proteus mirabilis C977): 12.5 µg/mL
MIC (Proteus morganii I580; I580): 25 µg/mL
MIC (Proteus rettgeri WM16): 12.5 µg/mL
MIC (Proteus vulgaris WO91): 12.5 µg/mL
MIC (Pseudomonas aeruginosa A): > 50 µg/mL
MIC [1]: 2.5 µg/mL
MIC (Serratia marcescens US20): 12.5 µg/mL
MIC (Shigella sonnei MB 11967): 5 µg/mL
MIC (Bacillus subtilis A): 2.5 µg/mL
MIC [2]: 1.2 µg/mL
MIC [3]: 2.5 µg/mL
MIC [4]: 12.5 µg/mL
MIC (Streptococcus faecalis I): 50 µg/mL
MIC [5]: 0.2 µg/mL
MIC [6]: 0.5 µg/mL
MIC (E. coli ESS): 1.2 µg/mL
